Read-outs that look alike come from different tables or passages of the source.

One series deals with T1, HIV-1 RT (Human immunodeficiency virus type 1 group M subtype B, UniProt P04585).
T1 construct: The primary target of tenofovir diphosphate is reverse transcriptase (RT)
The conditions noted are these: inhibition of HIV-1 RT; competitive with deoxyadenosine triphosphate incorporation; read-out: inhibition constant; cited from earlier work.

For series [1], the system named is laboratory HIV-1 strains and primary clinical isolates. The conditions noted are these: cited from earlier work.
The conditions of series [2]: atazanavir/ritonavir 300/100 mg once daily, cited from earlier work.
For series [3] the following is noted: ritonavir 100 mg once daily with atazanavir, cited from earlier work.
The conditions of series [4]: cited from earlier work; for Geometric mean ratio (95% confidence interval) for the AUC: saquinavir hard gel/ritonavir 1000/100 mg twice daily + tenofovir disoproxil fumarate 300 mg once daily.
The conditions of series [5]: healthy subjects, cited from earlier work; for AUC increase / Cmax increase / Cmin increase: saquinavir/ritonavir 1000/100 mg twice daily with tenofovir disoproxil fumarate 300 mg once daily vs alone.
Series [6] is described as follows: Volunteer study of TMC114/ritonavir with tenofovir disoproxil fumarate, pharmacokinetics and tolerability. On the procedure: Methods: 13 healthy volunteers were randomised into 2 cohorts.
In session 2, both cohorts received 300 mg tenofovir disoproxil fumarate qd for 14 days.

For series [7] the following is noted: lopinavir/ritonavir 400/100 mg twice daily 14 days + tenofovir 300 mg once daily, healthy volunteers; cited from earlier work.
Setting [8] is: after addition of tenofovir disoproxil fumarate 300 mg once daily.
Where [9] appears, read: before addition of tenofovir disoproxil fumarate.
Where [10] appears, read: in the presence of tenofovir 300 mg once daily.
Setting [11] is: tenofovir disoproxil fumarate 300 mg qd with TMC114/ritonavir co-administered vs alone, statistically significant.

Take `CC(Cn1cnc2c(N)ncnc21)OCP(=O)(O)OP(=O)(O)OP(=O)(O)O` (stereo in doubt) [tenofovir diphosphate]: the Ki on HIV-1 RT was ~900 nM.

For the molecule `CC(C)CN(C[C@@H](O)[C@H](Cc1ccccc1)NC(=O)OC1CO[C@H]2OCC[C@@H]12)S(=O)(=O)c1ccc(N)cc1` (some centres unmarked) [TMC114], the IC90 (commonly the concentration needed for an effect of 90%) in series [1] is ~9 nM. Also, the IC50 in series [1] (read-out: 50% inhibitory concentration [IC50]) was ~3 nM.

Consider `COC(=O)N[C@H](C(=O)N[C@@H](Cc1ccccc1)[C@@H](O)CN(Cc1ccc(-c2ccccn2)cc1)NC(=O)[C@@H](NC(=O)OC)C(C)(C)C)C(C)(C)C` [atazanavir], for which, in series [2] (setting [8]), the “AUC (mean±sd)” value was 39276 ± 23034 ng·h/mL and the “Cmax (mean±sd)” value was 3443 ± 1412 ng/mL. In addition, in series [2] (setting [9]), the “AUC (mean±sd)” value is 53761 ± 35255 ng·h/mL and the “Cmax (mean±sd)” value is 5233 ± 3033 ng/mL.

Take `CC(C)c1nc(CN(C)C(=O)N[C@H](C(=O)N[C@@H](Cc2ccccc2)C[C@H](O)[C@H](Cc2ccccc2)NC(=O)OCc2cncs2)C(C)C)cs1` [ritonavir]: the AUC (commonly the area under the concentration-time curve, a measure of exposure) in series [3] (setting [10]) was 5217 ng·h/mL; in series [3] (without tenofovir, HIV+ subjects), 7011 ng·h/mL. In addition, the Cmax (in general, the highest concentration seen after dosing) in series [3] (setting [10]) was 642 ng/mL; in series [3] (without tenofovir), 886 ng/mL. For the same molecule, the “plasma concentrations compared with day 1” value in series [4] (in vivo) is “not significantly different”.

Consider `CC(C)(C)NC(=O)[C@@H]1C[C@@H]2CCCC[C@@H]2CN1C[C@@H](O)[C@H](Cc1ccccc1)NC(=O)[C@H](CC(N)=O)NC(=O)c1ccc2ccccc2n1` [saquinavir], for which the “Geometric mean ratio (95% confidence interval) for the AUC” value in series [4] (day 3 vs day 1) is reported as 1.16 (0.97, 1.59). The “Geometric mean ratio (95% confidence interval) for the AUC” value in series [4] (day 14 vs day 1) is listed as 0.99 (0.87, 1.30). The “plasma concentrations compared with day 1” value in series [4] (following the addition of tenofovir disoproxil fumarate) is reported as “not significantly different”. For the same molecule, in series [5], the AUC increase is 29%, the Cmax increase was 22% and the Cmin increase is recorded as 47%. Moreover, the “Cmin achieved by all subjects” value in series [5] (saquinavir/ritonavir 1000/100 mg twice daily) is recorded as “above 100 ng/ml”.

As to `C[C@H](Cn1cnc2c(N)ncnc21)OCP(=O)(O)O` [tenofovir], the “urinary excretion of unchanged drug during one dosing interval” value in series [6] (in the presence and absence of TMC114/RTV) is recorded as “approximately 36%”. In addition, in series [6] (setting [11]), the “AUC24h (systemic exposure) increase based on the ratio of LSmeans” value was 22%, the “Cmax increase based on the ratio of LSmeans” value was 24% and the “Cmin increase based on the ratio of LSmeans” value is 37%. Besides, in series [7], the AUC increase is 34%, the Cmax increase was 31% and the Cmin increase is 29%. Moreover, in series [5], the AUC increase is 14%, the Cmax increase is given as 15% and the Cmin increase was 23%.
